Results: patent EP0967201A1, “Pharmaceutical agents containing sulfonamids as matrix metalloproteinase inhibitors” (Roche Diagnostics GmbH, priority 1998, dated 1999)

Tests used:
MMP-8 = molecular target: T1, MMP-8 (Homo sapiens, UniProt P22894); assay: MMP inhibition enzyme assay (initial reaction rate, standard substrate DNP-Pro-Leu-Gly-Leu-Trp-Ala-D-Arg-NH2); assay type: biochemical; settings: 8 nM catalytic domain (Met80-Gly242) of human neutrophil collagenase; 10 microM substrate; pH 7.6; read-out: MMP-8 Inhib. [%] IC50
T1 construct: catalytic domain (Met80-Gly242) of human neutrophil collagenase; made in house
T1 sequence (P22894 100-262 limits assumed): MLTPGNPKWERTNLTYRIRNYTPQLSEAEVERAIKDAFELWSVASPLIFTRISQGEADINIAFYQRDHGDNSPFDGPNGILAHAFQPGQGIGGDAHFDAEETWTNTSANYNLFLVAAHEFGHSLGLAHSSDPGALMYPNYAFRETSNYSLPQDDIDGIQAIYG
Method: (§1) In order to determine the inhibition of MMPs, for example MMP-8, the catalytic domain (isolation and purification see for example Schnierer, S., Kleine, T., Gote, T., Hillemann, A., Knäuper, V., Tschesche, H.,Biochem. Biophys. Res. Commun. (1993) 191, 319-326) is incubated with inhibitors having various concentrations. Subsequently, the initial reaction rate in the conversion of a standard substrate is measured in a manner analogous to Grams F. et al., FEBS 335 (1993) 76-80). Alternatively the percent inhibition will be determined at a distant inhibitor concentration.
(§2) The assays for other MMPs are performed in a analogous manner. • Assay buffer: 50 mM Tris/HCI pH 7.6 (Tris= Tris-(hydroxymethyl)-aminomethan) 100 mM NaCl/10 mM CaCl2-/5% MeOH (if necessary) • Enzyme: 8 nM catalytic domain (Met80-Gly242) of human neutrophil collagenase • Substrate: 10 microM DNP-Pro-Leu-Gly-Leu-Trp-Ala-D-Arg-NH2 • Total assay volume: 1 ml

MMP-9 = MMP-9 (Homo sapiens, UniProt P14780); assay: MMP inhibition enzyme assay, performed in an analogous manner to MMP-8; assay type: biochemical; settings: compound concentration 0.21 µM (100 ng/ml); read-out: MMP-9 Inhib. [%]
Sequence of MMP-9 (P14780 94-707, species assumed): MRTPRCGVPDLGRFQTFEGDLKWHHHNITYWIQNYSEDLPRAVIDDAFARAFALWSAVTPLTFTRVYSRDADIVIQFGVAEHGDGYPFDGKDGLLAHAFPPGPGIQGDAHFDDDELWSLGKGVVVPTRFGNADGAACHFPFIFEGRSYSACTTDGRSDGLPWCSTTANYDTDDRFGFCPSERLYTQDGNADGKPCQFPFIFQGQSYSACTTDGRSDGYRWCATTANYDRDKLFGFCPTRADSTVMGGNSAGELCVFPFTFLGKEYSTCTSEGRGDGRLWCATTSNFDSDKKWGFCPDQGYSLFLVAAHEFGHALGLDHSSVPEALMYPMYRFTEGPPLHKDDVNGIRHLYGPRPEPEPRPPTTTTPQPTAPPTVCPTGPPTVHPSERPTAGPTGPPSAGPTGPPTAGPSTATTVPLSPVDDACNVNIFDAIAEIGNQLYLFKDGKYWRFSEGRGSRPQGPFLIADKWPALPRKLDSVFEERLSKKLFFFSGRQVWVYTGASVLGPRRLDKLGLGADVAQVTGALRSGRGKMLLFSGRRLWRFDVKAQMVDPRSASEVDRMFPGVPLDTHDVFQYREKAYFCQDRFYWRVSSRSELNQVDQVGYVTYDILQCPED
Method: as §1, §2

Row | Structure (SMILES) | IC50 (MMP-8) [nM] | inhibition at 0.21 µM (MMP-9) [%]
1 | O=C(O)[C@H](CSCc1ccccc1)NS(=O)(=O)c1ccc(-c2ccc(Cl)cc2)cc1 [Example 1, N-(p-Chloro-biphenylsulfonyl)-S-benzyl-cysteine] | 21.6 | –
2 | O=C(C[C@H](NS(=O)(=O)c1ccc(-c2ccc(Cl)cc2)cc1)C(=O)O)OCc1ccccc1 [Example 2, L-N-(p-Chlorobiphenylsulfonyl)-aspartic acid-β-benzylester] | 48.7 | 38
